# Source: patent US7056917B2, “Drug efflux pump inhibitor” (Daiichi Pharmaceutical Co., Ltd., priority 2001, dated 2006)
# Tests used:
# [1] = tested on: Pseudomonas aeruginosa PAM 1723 strain highly expressing the drug efflux pump; assay: Effect of combined use with antimicrobial agent (levofloxacin, aztreonam) on multidrug resistant Pseudomonas aeruginosa; format: cell-based; conditions: 18 hours, MHB; for MPC8 AZT: minimum concentration of test compound required to enhance antibacterial activity of aztreonam at 1/8 or less of MIC; for MPC4 LVFX: minimum concentration of test compound required to enhance antibacterial activity of levofloxacin applied at 1/4 of MIC; for MPC8 LVFX: minimum concentration of test compound required to enhance antibacterial activity of levofloxacin applied at 1/8 or less of MIC
# Description: Effect of Combined Use with Antimicrobial Agent on Multidrug Resistant Pseudomonas aeruginosa
# As multidrug resistant Pseudomonas aeruginosa, Pseudomonas aeruginosa PAM 1723 strain highly expressing the drug efflux pump was used. As antimicrobial drugs for the combinational uses, levofloxacin (LVFX) as a quinolone antibacterial agent and aztreonam (AZT) as a monobactam antibiotic were used. Each of the compounds shown in Table 1 with Example No., which falls within the compounds of the present invention, was subjected to the measurement of its minimum concentration (μg/ml) that was required to enhance the antibacterial activity of levofloxacin when the test compound was used in combination with levofloxacin applied at a concentration of 1/4, or 1/8 or less of the minimum inhibitory concentration against the PAM 1723 strain. […] Effects as combinational uses for 18 hours was indicated for each of the drugs. Effects were determined by visually observing the turbidity of the medium. The Müller-Hinton broth (MHB, Difco) was used as a medium, and the inoculum of the bacteria was 1×10^6 CFU/ml.
# [2] = tested on: Pseudomonas aeruginosa wild strain PAM 1020; assay: Combined use of a pump inhibitor, levofloxacin (LVFX) and meropenem (MEPM) evaluated by the three-dimensional checker board method; format: cell-based; conditions: for MIC: Pseudomonas aeruginosa, agent used alone, PAM 1020 strain
# Method: (1) Effect of Combined Used of a Pump Inhibitor, Levofloxacin (LVFX) and Meropenem (MEPM) Evaluated by the Three-Dimensional Checker Board Method
# The effect was measured by the three-dimensional checker board method by using Pseudomonas aeruginosa wild strain PAM 1020. The test strain was inoculated into Mueller-Hinton broth containing LVFX, MEPM (at 11 concentration levels and 0 μg/ml) and the compound of Example 26 (40-0.625 μg/ml and 0 μg/ml) at a concentration of 10^6 CFU/ml and cultured at 37° C. for 18 hours. Then, MIC was measured for sole and combined use. Measurement was performed by the checker board method and FIC index was calculated according to the following equation. FIC index=a/a0+b/b0+c/c0 wherein a0: MIC for Agent A used alone, a: MIC for Agent A when Agents A, B and C are used in combination, b0: MIC for Agent B used alone, b: MIC for Agent B when Agents A, B and C are used in combination, c0: MIC for Agent C used alone, c: MIC for Agent C when Agents A, B and C are used in combination.
# It was determined that there was synergistic effect when FIC index was 0.75 or less, additive effect or weak synergistic effect when the index was more than 0.75 but not more than 1.125, no effect of combined use when the index was more than 1.125 but not more than 3.0, and antagonistic effect when the index was more than 3.0.
smiles,measurement,setting,value
"CC(C)c1csc(CCc2ccn3c(=O)c(/C=C(\F)C(=O)O)c(N4CCOCC4)nc3c2)n1 [Example 135, (Z)-2-Fluoro-3-{8-[2-(4-isopropyl-1,3-thiazol-2-yl)ethyl]-2-morpholino-4-oxo-4H-pyrido[1,2-a]pyrimidin-3-yl}-2-propenoic acid]",MPC8 AZT,[1],8 µg/mL
same,MPC4 LVFX,[1],4 µg/mL
same,MPC8 LVFX,[1],16 µg/mL
"CCn1cc(-c2nn[nH]n2)c(=O)c2ccc(/C=C/c3nc(C(C)C)cs3)nc21 [Example 155, 1-Ethyl-7-[(E)-2-(4-isopropyl-1,3-thiazol-2-yl)-1-ethenyl]-3-(1H-1,2,3,4-tetrazol-5-yl)-1,4-dihydro[1,8]naphthylidin-4-one]",MPC8 AZT,[1],2 µg/mL
same,MPC4 LVFX,[1],0.25 µg/mL
same,MPC8 LVFX,[1],2 µg/mL
"CC(C)c1csc(COc2ccn3c(=O)c(/C=C/C(=O)O)c(N4CCCC(O)C4)nc3c2)n1 (centres unmarked) [Example 5, (E)-3-{2-(3-Hydroxypiperidino)-8-[(4-isopropyl-1,3-thiazol-2-yl)methoxy]-4-oxo-4H-pyrido[1,2-a]pyrimidin-3-yl}-2-propenoic acid]",MPC8 AZT,[1],8 µg/mL
same,MPC4 LVFX,[1],0.5 µg/mL
same,MPC8 LVFX,[1],8 µg/mL
"CC(C)c1csc(/C=C/c2ccn3c(=O)c(/C=C/C(=O)O)c(OCC4CCOC4)nc3c2)n1 (centres unmarked) [Example 117, (E)-3-{8-[(E)-2-(4-Isopropyl-1,3-thiazol-2-yl)-1-ethenyl]-4-oxo-2-(tetrahydro-3-furanylmethoxy)-4H-pyrido[1,2-a]pyrimidin-3-yl}-2-propenoic acid]",MPC8 AZT,[1],4 µg/mL
same,MPC4 LVFX,[1],1 µg/mL
same,MPC8 LVFX,[1],4 µg/mL
"CC(C)(C)c1csc(NC(=O)c2ccn3c(=O)c(/C=C/C(=O)O)c(N4CCC[C@@H](OC(N)=O)C4)nc3c2)n1 [Example 18, (E)-3-[2-{(3R)-3-[(Aminocarbonyl)oxy]hexahydro-1-pyridinyl}-8-({[4-(tert-butyl)-1,3-thiazol-2-yl]amino}carbonyl)-4-oxo-4H-pyrido[1,2-a]pyrimidin-3-yl]-2-propenoic acid]",MPC8 AZT,[1],0.5 µg/mL
same,MPC4 LVFX,[1],≦0.25 μg/ml
same,MPC8 LVFX,[1],1 µg/mL
"C[C@H]1COc2c(N3CCN(C)CC3)c(F)cc3c(=O)c(C(=O)O)cn1c23 [LVFX, levofloxacin]",FIC index,"[2]; LVFX + MEPM 0.016 μg/ml, compound of Example 26 0 μg/ml, PAM 1020",1.031
same,FIC index,"[2]; LVFX + MEPM 0.0313 μg/ml, compound of Example 26 0 μg/ml, PAM 1020",1.0625
same,FIC index,"[2]; LVFX + MEPM 0.0625 μg/ml, compound of Example 26 0 μg/ml, PAM 1020",1.125
same,FIC index,"[2]; LVFX + MEPM 0.125 μg/ml, compound of Example 26 0 μg/ml, PAM 1020",1.250
same,FIC index,"[2]; LVFX + MEPM 0.25 μg/ml, compound of Example 26 0 μg/ml, PAM 1020",1.5
same,LVFX conc.,"[2]; LVFX conc. in combination with MEPM 0.016 μg/ml and compound of Example 26 0.625 μg/ml, PAM 1020",0.25 µg/mL
same,LVFX conc.,"[2]; LVFX conc. in combination with MEPM 0.016 μg/ml and compound of Example 26 1.25 μg/ml, PAM 1020",0.25 µg/mL
same,LVFX conc.,"[2]; LVFX conc. in combination with MEPM 0.016 μg/ml and compound of Example 26 2.5 μg/ml, PAM 1020",0.25 µg/mL
same,LVFX conc.,"[2]; LVFX conc. in combination with MEPM 0.016 μg/ml and compound of Example 26 5 μg/ml, PAM 1020",0.125 µg/mL
same,LVFX conc.,"[2]; LVFX conc. in combination with MEPM 0.016 μg/ml and compound of Example 26 10 μg/ml, PAM 1020",0.125 µg/mL
same,LVFX conc.,"[2]; LVFX conc. in combination with MEPM 0.016 μg/ml and compound of Example 26 20 μg/ml, PAM 1020",0.125 µg/mL
same,LVFX conc.,"[2]; LVFX conc. in combination with MEPM 0.016 μg/ml and compound of Example 26 40 μg/ml, PAM 1020",0.125 µg/mL
same,LVFX conc.,"[2]; LVFX conc. in combination with MEPM 0.016 μg/ml, compound of Example 26 0 μg/ml, PAM 1020",0.25 µg/mL
same,LVFX conc.,"[2]; LVFX conc. in combination with MEPM 0.0313 μg/ml and compound of Example 26 0.625 μg/ml, PAM 1020",0.25 µg/mL
same,LVFX conc.,"[2]; LVFX conc. in combination with MEPM 0.0313 μg/ml and compound of Example 26 1.25 μg/ml, PAM 1020",0.25 µg/mL
same,LVFX conc.,"[2]; LVFX conc. in combination with MEPM 0.0313 μg/ml and compound of Example 26 2.5 μg/ml, PAM 1020",0.125 µg/mL
same,LVFX conc.,"[2]; LVFX conc. in combination with MEPM 0.0313 μg/ml and compound of Example 26 5 μg/ml, PAM 1020",0.125 µg/mL
same,LVFX conc.,"[2]; LVFX conc. in combination with MEPM 0.0313 μg/ml and compound of Example 26 10 μg/ml, PAM 1020",0.125 µg/mL
same,LVFX conc.,"[2]; LVFX conc. in combination with MEPM 0.0313 μg/ml and compound of Example 26 20 μg/ml, PAM 1020",0.125 µg/mL
same,LVFX conc.,"[2]; LVFX conc. in combination with MEPM 0.0313 μg/ml and compound of Example 26 40 μg/ml, PAM 1020",0.125 µg/mL
same,LVFX conc.,"[2]; LVFX conc. in combination with MEPM 0.0313 μg/ml, compound of Example 26 0 μg/ml, PAM 1020",0.25 µg/mL
same,LVFX conc.,"[2]; LVFX conc. in combination with MEPM 0.0625 μg/ml and compound of Example 26 0.625 μg/ml, PAM 1020",0.25 µg/mL
same,LVFX conc.,"[2]; LVFX conc. in combination with MEPM 0.0625 μg/ml and compound of Example 26 1.25 μg/ml, PAM 1020",0.125 µg/mL
same,LVFX conc.,"[2]; LVFX conc. in combination with MEPM 0.0625 μg/ml and compound of Example 26 2.5 μg/ml, PAM 1020",0.125 µg/mL
same,LVFX conc.,"[2]; LVFX conc. in combination with MEPM 0.0625 μg/ml and compound of Example 26 5 μg/ml, PAM 1020",0.0625 µg/mL
same,LVFX conc.,"[2]; LVFX conc. in combination with MEPM 0.0625 μg/ml and compound of Example 26 10 μg/ml, PAM 1020",0.0625 µg/mL
same,LVFX conc.,"[2]; LVFX conc. in combination with MEPM 0.0625 μg/ml and compound of Example 26 20 μg/ml, PAM 1020",0.0313 µg/mL
same,LVFX conc.,"[2]; LVFX conc. in combination with MEPM 0.0625 μg/ml and compound of Example 26 40 μg/ml, PAM 1020",0.0313 µg/mL
same,LVFX conc.,"[2]; LVFX conc. in combination with MEPM 0.0625 μg/ml, compound of Example 26 0 μg/ml, PAM 1020",0.25 µg/mL
same,LVFX conc.,"[2]; LVFX conc. in combination with MEPM 0.125 μg/ml and compound of Example 26 0.625 μg/ml, PAM 1020",0.125 µg/mL
same,LVFX conc.,"[2]; LVFX conc. in combination with MEPM 0.125 μg/ml and compound of Example 26 1.25 μg/ml, PAM 1020",0.0625 µg/mL
same,LVFX conc.,"[2]; LVFX conc. in combination with MEPM 0.125 μg/ml and compound of Example 26 2.5 μg/ml, PAM 1020",0.0313 µg/mL
same,LVFX conc.,"[2]; LVFX conc. in combination with MEPM 0.125 μg/ml and compound of Example 26 5 μg/ml, PAM 1020",0.0156 µg/mL
same,LVFX conc.,"[2]; LVFX conc. in combination with MEPM 0.125 μg/ml and compound of Example 26 10 μg/ml, PAM 1020",0.0039 µg/mL
same,LVFX conc.,"[2]; LVFX conc. in combination with MEPM 0.125 μg/ml, compound of Example 26 0 μg/ml, PAM 1020",0.25 µg/mL
same,LVFX conc.,"[2]; LVFX conc. in combination with MEPM 0.25 μg/ml and compound of Example 26 0.625 μg/ml, PAM 1020",0.0078 µg/mL
same,LVFX conc.,"[2]; LVFX conc. in combination with MEPM 0.25 μg/ml, compound of Example 26 0 μg/ml, PAM 1020",2 µg/mL
same,MIC,[2],0.25 µg/mL
"CC(C)c1csc(/C=C/c2ccn3c(=O)c(/C=C/C(=O)O)c(N4CCN(C(=O)[C@@H](N)CCCNC(=N)N)CC4)nc3c2)n1 [Example 78, (E)-3-{2-[4-((2 S)-2-Amino-5-{[amino(imino)methyl]amino}pentanoyl)-piperazino]-8-[(E)-2-(4-isopropyl-1,3-thiazol-2-yl)-1-ethenyl]-4-oxo-4H-pyrido[1,2-a]-pyrimidin-3-yl}-2-propenoic acid]",MPC8 AZT,[1],1 µg/mL
same,MPC4 LVFX,[1],0.5 µg/mL
same,MPC8 LVFX,[1],1 µg/mL
"C[C@@H](O)[C@H]1C(=O)N2C(C(=O)O)=C(S[C@@H]3CN[C@H](C(=O)N(C)C)C3)[C@H](C)[C@H]12 [MEPM, Meropenem]",effect of combined use of three types of drugs,"[2]; LVFX, MEPM and compound of Example 26 0.625-40 μg/ml, PAM 1020",apparent effects of the addition of MEPM were observed
same,MIC,[2],0.5 µg/mL
same,"effect of MEPM on the combined use of two types of drugs, LVFX and the compound of Example 26","[2]; compound of Example 26 0.625-40 μg/ml, PAM 1020",effects of the addition of MEPM were clearly observed
